In ChEMBL document CHEMBL1250448, “Inhibitor hijacking of Akt activation” (Nat Chem Biol, 2009) one finds Activity and fold change (FC) data, which are given here for two compounds.

The target of assay [1] is RAC-alpha serine/threonine-protein kinase (Rattus norvegicus) (UniProt P47196). Put plainly: Induction AKT1 Thr308 hyperphosphorylation in insulin-induced rat L6 cells after 20 mins before insulin stimulation by immunoblotting. In kind it is cell-based.
Assay [2] shares this target. Put plainly: Induction AKT1 Ser473 hyperphosphorylation in insulin-induced rat L6 cells after 20 mins before insulin stimulation by immunoblotting. In kind it is cell-based. In general terms: Immunoblotting shows a protein as a band on a membrane.
Assay [3] has as its target T1, RAC-alpha serine/threonine-protein kinase (Homo sapiens, UniProt P31749). Put plainly: Induction of flag-tagged wild type AKT1 Ser473 hyperphosphorylation expressed in HEK293 cells coexpressing HA-tagged AKT1 M227G after 30 mins by immunoblotting.
For assay [4], the system named is HEK-293T. Put plainly: Induction myristoylated AKT2 M225G mutant Thr308 hyperphosphorylation expressed in HEK293T cells at 2.5 uM after 30 mins pretreated with PDK1 inhibitor BX-795 for 10 mins before compound addition by immunoblotting. In kind it is cell-based.
Assay [5] relates to RAC-alpha serine/threonine-protein kinase (Homo sapiens), P31749 [M227G]. Put plainly: Induction of membrane localized myristoylated AKT1 M227G mutant Thr308 hyperphosphorylation expressed in HEK293T cells at 2.5 uM after 30 mins by immunoblotting. In kind it is cell-based. As to conditions: HEK-293T.
For assay [6] the test system is unchanged. Put plainly: Induction of myristoylated AKT1 M227G Ser473 hyperphosphorylation expressed in HEK293 cells coexpressing flag-tagged wild type AKT1 after 30 mins by immunoblotting. In kind it is cell-based.
The test system is the same in assay [7]. Put plainly: Induction of myristoylated AKT1 M227G Thr308 hyperphosphorylation expressed in MCF7 cells at 2.5 uM after 30 mins by immunoblotting. In kind it is cell-based.
In assay [8] the test system is MCF7. Put plainly: Induction of myristoylated AKT2 M225G and kinase dead D289A mutant Ser473 hyperphosphorylation expressed in MCF7 cells at 2.5 uM after 30 mins by immunoblotting. In kind it is cell-based.
The test system of assay [9] is PC-3. Put plainly: Induction of myristoylated AKT2 M225G mutant Thr308 hyperphosphorylation expressed in PC3 cells at 2.5 uM after 30 mins by immunoblotting. In kind it is cell-based.
In assay [10] the test system is RAC-alpha serine/threonine-protein kinase (Homo sapiens), P31749 [M227G]. Put plainly: Induction of myristoylated AKT1 M227G Ser473 hyperphosphorylation expressed in MCF7 cells at 2.5 uM after 30 mins by immunoblotting. In kind it is cell-based.
The test system is the same in assay [11]. Put plainly: Induction of flag tagged AKT1 M227G Ser473 hyperphosphorylation expressed in HEK293 cells at 2.5 uM after 30 mins by immunoblotting. In kind it is cell-based.
For assay [12], the target named is T1, RAC-alpha serine/threonine-protein kinase. Put plainly: Induction of flag-tagged wild type AKT1 Thr308 hyperphosphorylation expressed in HEK293 cells coexpressing HA-tagged AKT1 M227G after 30 mins by immunoblotting.
For a further assay, the system named is MiaPaCa2. Put plainly: Induction of myristoylated AKT2 M225G and kinase dead D289A mutant Ser473 hyperphosphorylation expressed in MiaPaCa2 cells at 2.5 uM after 30 mins by immunoblotting. In kind it is cell-based.
Assay [13] concerns HEK-293T. Put plainly: Induction myristoylated AKT2 M225G mutant Ser473 hyperphosphorylation expressed in HEK293T cells at 2.5 uM after 30 mins pretreated with PDK1 inhibitor BX-795 for 10 mins before compound addition by immunoblotting. In kind it is cell-based.
For assay [14], the system named is RAC-alpha serine/threonine-protein kinase (Homo sapiens), P31749 [M227G,D292A]. Put plainly: Induction of myristoylated AKT1 M227G and kinase dead D292A mutant Thr308 hyperphosphorylation expressed in HEK293T cells at 2.5 uM after 30 mins by immunoblotting. As to conditions: HEK-293T. In kind it is cell-based.
For assay [15], the system named is RAC-alpha serine/threonine-protein kinase (Homo sapiens), P31749 [M227G]. Put plainly: Increase in catalytic activity of compound exposed AKT1 M227G mutant expressed in HEK293 cells measured post compound dissociation by in vitro immunoprecipitation kinase assay relative to untreated AKT1 M227G mutant. The note with it: HEK-293.
Assay [16] shares this test system. Put plainly: Induction of myristoylated AKT1 M227G Thr308 hyperphosphorylation expressed in MiaPaCa2 cells at 2.5 uM after 30 mins by immunoblotting. In kind it is cell-based.
For assay [17] the test system is unchanged. Put plainly: Induction of flag tagged AKT1 M227G Thr308 hyperphosphorylation expressed in HEK293 cells at 2.5 uM after 30 mins by immunoblotting. In kind it is cell-based.
The subject of assay [18] is HEK-293T. Put plainly: Induction myristoylated AKT2 M225G mutant Thr308 hyperphosphorylation expressed in HEK293T cells at 2.5 uM after 30 mins pretreated with pan-PI3K inhibitor PIK90 for 10 mins before compound addition by immunoblotting. In kind it is cell-based.
The test system of assay [19] is RAC-alpha serine/threonine-protein kinase (Homo sapiens), P31749 [M227G]. Put plainly: Induction of mCherry tagged AKT1 M227G Ser473 hyperphosphorylation expressed in HEK293 cells at 2.5 uM after 30 mins by immunoblotting. In kind it is cell-based.
Assay [20] deals with HEK-293T. Put plainly: Induction of myristoylated AKT2 M225G and kinase dead D289A mutant Thr308 hyperphosphorylation expressed in HEK293T cells at 2.5 uM after 30 mins by immunoblotting. In kind it is cell-based.
Assay [21] has as its system HEK-293T. Put plainly: Induction of myristoylated AKT3 M229G mutant Ser473 hyperphosphorylation expressed in HEK293T cells at 2.5 uM after 30 mins pretreated with PDK1 inhibitor BX-795 for 10 mins before compound addition by immunoblotting. In kind it is cell-based.
The subject of assay [22] is RAC-alpha serine/threonine-protein kinase (Homo sapiens), P31749 [M227G,D292A]. Put plainly: Induction of myristoylated AKT1 M227G and kinase dead D292A mutant Ser473 hyperphosphorylation expressed in PC3 cells at 2.5 uM after 30 mins by immunoblotting. In kind it is cell-based. As to conditions: PC-3.
In assay [23] the test system is MCF7. Put plainly: Induction of myristoylated AKT2 M225G mutant Ser473 hyperphosphorylation expressed in MCF7 cells at 2.5 uM after 30 mins by immunoblotting. In kind it is cell-based.
In assay [24] the test system is RAC-alpha serine/threonine-protein kinase (Homo sapiens), P31749 [M227G]. Put plainly: Induction of myristoylated AKT1 M227G mutant Thr308 hyperphosphorylation expressed in HEK293 cells at 2.5 uM after 30 mins by immunoblotting. The note with it: HEK-293.
The test system is the same in assay [25]. Put plainly: Induction of myristoylated AKT1 M227G mutant Thr308 hyperphosphorylation expressed in HEK293T cells at 2.5 uM after 30 mins pretreated with pan-PI3K inhibitor PIK90 for 10 mins before compound addition by immunoblotting. In kind it is cell-based. The note with it: HEK-293T.
The test system of assay [26] is HEK-293T. Put plainly: Induction myristoylated AKT2 M225G mutant Ser473 hyperphosphorylation expressed in HEK293T cells at 2.5 uM after 30 mins pretreated with pan-PI3K inhibitor PIK90 for 10 mins before compound addition by immunoblotting. In kind it is cell-based.
Assay [27] deals with PC-3. Put plainly: Induction of myristoylated AKT2 M225G mutant Ser473 hyperphosphorylation expressed in PC3 cells at 2.5 uM after 30 mins by immunoblotting. In kind it is cell-based.
Assay [28] relates to PC-3. Put plainly: Induction of myristoylated AKT2 M225G and kinase dead D289A mutant Thr308 hyperphosphorylation expressed in PC3 cells at 2.5 uM after 30 mins by immunoblotting. In kind it is cell-based.
Assay [29] relates to PC-3. Put plainly: Induction of myristoylated AKT2 M225G and kinase dead D289A mutant Ser473 hyperphosphorylation expressed in PC3 cells at 2.5 uM after 30 mins by immunoblotting. In kind it is cell-based.
For assay [30], the system named is RAC-alpha serine/threonine-protein kinase (Homo sapiens), P31749 [M227G]. Put plainly: Induction of myristoylated AKT1 M227G Ser473 hyperphosphorylation expressed in MiaPaCa2 cells at 2.5 uM after 30 mins by immunoblotting. In kind it is cell-based.

Activity calls are given as the source filed them. No cut-off for these calls is given here.

Chain of RAC-alpha serine/threonine-protein kinase (Homo sapiens), P31749 [M227G] (P31749 whole entry M227G): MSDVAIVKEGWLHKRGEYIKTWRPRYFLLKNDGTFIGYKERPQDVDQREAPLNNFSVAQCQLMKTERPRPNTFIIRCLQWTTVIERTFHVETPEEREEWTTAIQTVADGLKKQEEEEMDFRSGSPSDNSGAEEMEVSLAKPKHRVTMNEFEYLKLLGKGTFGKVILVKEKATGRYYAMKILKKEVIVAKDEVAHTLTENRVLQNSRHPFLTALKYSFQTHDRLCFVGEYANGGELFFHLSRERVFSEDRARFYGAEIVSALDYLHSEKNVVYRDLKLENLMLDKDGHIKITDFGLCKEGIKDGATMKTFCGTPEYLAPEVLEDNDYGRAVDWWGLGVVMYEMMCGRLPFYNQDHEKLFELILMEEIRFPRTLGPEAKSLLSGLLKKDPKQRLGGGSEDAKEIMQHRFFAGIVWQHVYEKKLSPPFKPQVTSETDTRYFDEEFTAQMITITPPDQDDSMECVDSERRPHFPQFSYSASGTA
Chain of RAC-alpha serine/threonine-protein kinase (Homo sapiens), P31749 [M227G,D292A] (P31749 whole entry M227G/D292A): as the sequence (P31749 whole entry M227G) above, with D292A counted along it
Chain of RAC-alpha serine/threonine-protein kinase (Rattus norvegicus) (P47196 whole entry): as the sequence (P31749 whole entry M227G) above, with S2N, D46E, A50S, K112R, E117T, S137A, G227M, K389T, G410N, H415D counted along it
T1 sequence (P31749 whole entry): as the sequence (P31749 whole entry M227G) above, with G227M counted along it

Turning to `COc1ccccc1N1CCN(c2ncnc3[nH]nc(Br)c23)CC1`, the outcome in assay [1] and in assay [2] was inactive.

For the compound `CCCc1cc(-c2cncc(OC[C@@H](N)Cc3c[nH]c4ccccc34)c2)cc2c(C)n[nH]c12`, the result (in [3]; in the assay on HEK-293T [4]; in assay [12]; in the assay on HEK-293T [13]; with HEK-293T [18]; with HEK-293T [21]) was inactive. Also, the outcome (in assay [25]; with HEK-293T [26]) was inactive. Moreover, the result (in assay [5]; in [6]; in assay [7]; with MCF7 [8]; in the assay with PC-3 [9]; in assay [10]) was Active. Besides, the result (in [11]; with MiaPaCa2; in [14]; in assay [16]; in assay [17]; in [19]) was Active. Further, the outcome (with HEK-293T [20]; in [22]; with MCF7 [23]; in assay [24]; with PC-3 [27]; in the assay with PC-3 [28]) was Active. Further, the outcome (in the assay with PC-3 [29]; in assay [30]) was Active. The same compound registered a fold change (FC) in assay [15] of 10.
